{"source": "patent US20040122062A1", "about": "“Use of growth hormone secretagogues for treatment of physical performance decline” (Pfizer Inc, priority 2000, published 2004)", "key": {"[1]": {"details": "canines during remobilization; cited from earlier work"}, "[2]": {"details": "obese young males; cited from earlier work"}, "[3]": {"assay": "6-Minute Walk Test in a clinical study", "format": "in vivo, human", "details": "all dose groups, week 6 and week 12", "experimental": "One physical performance endpoint in a clinical study was to determine whether the test compound, 2-amino-N-[2-(3a-(R)-benzyl-2-methyl-3-oxo-2,3,3a,4,6,7-hexahydro-pyrazolo[4,3-c]pyridin-5-yl)-1-(R)-benzyloxymethyl-2-oxo-ethyl]-isobutyramide, L-tartrate, increased the six-minute walk distance in subjects with mild-to-moderate congestive heart failure. There were four dose groups, 3 mg po tid; 6 mg po tid; 10 mg po q am, and placebo.\nThe six-minute walk study was performed at baseline, week 6, and week 12. The purpose of this test was to determine how many feet an individual can walk within six-minutes."}, "[4]": {"details": "adult female rats; cited from earlier work"}}, "note": "Where a SMILES comes first, the peptide text is derived from it. [ ]: non-standard residue; d: D form. d2Nal = N[C@H](Cc1ccc2ccccc2c1)C(=O)O; Aib = CC(C)(N)C(=O)O", "data": [{"molecule": "CC(C)(N)C(=O)N[C@H](COCc1ccccc1)C(=O)N1CCC2(CC1)CN(S(C)(=O)=O)c1ccccc12", "note": "[MK-0677]", "values": [{"measurement": "levels of serum insulin-like growth factor-I", "setting": "[1]", "result": "elevated"}, {"measurement": "size and strength of the quadriceps muscle", "setting": "[1]", "result": "increased"}, {"measurement": "markers of bone formation and bone resorption", "setting": "[2]", "result": "increases"}]}, {"molecule": "CN1N=C2CCN(C(=O)[C@@H](COCc3ccccc3)NC(=O)C(C)(C)N)C[C@@]2(Cc2ccccc2)C1=O.O=C(O)C(O)C(O)C(=O)O", "note": "[2-amino-N-[2-(3a-(R)-benzyl-2-methyl-3-oxo-2,3,3a,4,6,7-hexahydro-pyrazolo[4,3-c]pyridin-5-yl)-1-(R)-benzyloxymethyl-2-oxo-ethyl]-isobutyramide, L-tartrate]", "values": [{"measurement": "six-minute walk distance, change from baseline", "setting": "[3]", "result": "increased in all dose groups at both 6 and 12 weeks"}]}, {"molecule": "CC(C)(N)C(=O)N[C@@H](Cc1c[nH]cn1)C(=O)N[C@H](Cc1ccc2ccccc2c1)C(=O)N[C@H](Cc1ccccc1)C(=O)N[C@@H](CCCCN)C(N)=O", "note": "[ipamorelin] (H-[Aib]H[d2Nal][dF]K-NH2)", "values": [{"measurement": "bone mass", "setting": "[4]", "result": "have the capacity to increase bone mass"}]}, {"molecule": "GHRP-6", "values": [{"measurement": "bone mass", "setting": "[4]", "result": "have the capacity to increase bone mass"}]}]}
